Nine molecules from US9624166B2, “Tetracycline compounds” (Tetraphase Pharmaceuticals, Inc., priority 2009, dated 2017) can be followed below.

Bounds are passed on as bounds.

Assay [1] has as its system S. aureus ATCC 13709 (Smith). As to the kind of experiment: Murine systemic infection (septicemia) model with intraperitoneal challenge of S. aureus. Format: in vivo. The conditions noted are these: CD-1 female mice, i.v. one hour post-challenge, SA Smith septicemia, survival after 48 hours, Probit analysis. As to the method: Murine Systemic Infection Model with Intraperitoneal Challenge of S. aureus
In the model, CD-1 female mice (18-20 grams) were injected intraperitoneally with S. aureus ATCC 13709 (Smith) (1-2×10^6/mouse) mixed with 5% hog gastric mucin, a bacterial inoculum previously established through virulence studies required to achieve 90-100% lethality within 24-48 hours. Typically, six mice were treated intravenously per dose group one hour post-challenge with either compound 101, compound 105, compound 145, compound 153, compound 166, and compound 218, tetracycline or tigecycline at doses ranging from 0.05-10 mg/kg. After 48 hours, percent survival was calculated and the dose (mg/kg) effecting 50% survival, the protective dose 50% (PD50), was reported along as calculated by Probit analysis.
The PD50 values of compound 101, compound 105, compound 145, compound 153, compound 166, and compound 218 and comparators tigecycline and tetracycline in the S. aureus ATCC 13709 mouse septicemia model are described in Table 6.

For assay [2], the system named is E. cloacae ATCC 13047 (EC108, wt). Description: MIC assay, EC108. Format: cell-based. Particulars: numeric MIC of control compounds. The method, then: (§1) Minimum Inhibitory Concentration (MIC) Assay
(§2) MICs were determined according to the Clinical and Laboratory Standards Institute (CLSI) guidances (e.g., CLSI. Performance standards for antimicrobial susceptibility testing; nineteenth information supplement. CLSI document M100-S19, CLSI, 940 West Valley Road, Suite 1400, Wayne, Pa. 19087-1898, USA, 2009). Briefly, frozen bacterial strains were thawed and subcultured onto Mueller Hinton Broth (MHB) or other appropriate media (Streptococcus requires blood and Haemophilus requires hemin and NAD). Following incubation overnight, the strains were subcultured onto Mueller Hinton Agar and again incubated overnight. […] Isolated colonies were selected to prepare a starting inoculum equivalent to a 0.5 McFarland standard. The starting inoculum was diluted 1:125 using MHB for further use. Test compounds were prepared by dilution in sterile water to a final concentration of 5.128 mg/mL. Antibiotics (stored frozen, thawed and used within 3 hours of thawing) and compounds were further diluted to the desired working concentrations.
(§3) The assays were run as follows. Fifty μL of MHB was added to wells 2-12 of a 96-well plate. One hundred μL of appropriately diluted antibiotics was added to well 1. Fifty μL of antibiotics was removed from well 1 and added to well 2 and the contents of well 2 mixed by pipetting up and down five times. Fifty μL of the mixture in well 2 was removed and added to well 3 and mixed as above. Serial dilutions were continued in the same manner through well 12. Fifty μL was removed from well 12 so that all contained 50 μL. Fifty μL of the working inoculum was then added to all test wells. A growth control well was prepared by adding 50 μL of working inoculum and 50 μL of MHB to an empty well. The plates were then incubated at 37° C. overnight, removed from the incubator and each well was read on a plate reading mirror. The lowest concentration (MIC) of test compound that inhibited the growth of the bacteria was recorded.
(§4) Fifteen bacterial strains, listed below, were examined in minimum inhibitory concentration (MIC) assays.

The subject of assay [3] is K. pneumoniae ATCC 13883 (KP109, wt). As to the kind of experiment: MIC assay, KP109. Format: cell-based. The conditions noted are these: numeric MIC of control compounds. The method, then: as §1, §2, §3, §4
Assay [4] has as its system P. aeruginosa ATCC 27853 (PA111, wt, control). As to the kind of experiment: MIC assay, PA111. It is filed as cell-based. The conditions noted are these: numeric MIC of control compounds. The method, then:
as §1, §2, §3, §4

In assay [5] the test system is A. baumanii ATCC 19606 (AB110, wt). Description: MIC assay, AB110. Format: cell-based. Particulars: numeric MIC of control compounds. As to the method:
as §1, §2, §3, §4

Assay [6] has as its system E. coli ATCC 25922 (EC107, wt, control). As to the kind of experiment: MIC assay, EC107. Format: cell-based. The conditions noted are these: numeric MIC of control compounds. The method, then:
as §1, §2, §3, §4

`COc1cc(NC(=O)CN2CCCC2)c(O)c2c1C[C@H]1C[C@H]3[C@H](N(C)C)C(O)=C(C(N)=O)C(=O)[C@@]3(O)C(O)=C1C2=O` [Compound 101]: the “PD50 (protective dose 50%, dose effecting 50% survival)” value in assay [1] is 0.36 mg/kg.
`COc1cc(NC(=O)CN(C)C)c(O)c2c1C[C@H]1C[C@H]3[C@H](N(C)C)C(O)=C(C(N)=O)C(=O)[C@@]3(O)C(O)=C1C2=O` [Compound 105]: in assay [1], the “PD50 (protective dose 50%, dose effecting 50% survival)” value is on record as 0.25 mg/kg.
Consider `COc1cc(NS(=O)(=O)c2ccccc2)c(O)c2c1C[C@H]1C[C@H]3[C@H](N(C)C)C(O)=C(C(N)=O)C(=O)[C@@]3(O)C(O)=C1C2=O` [Compound 153], for which the “PD50 (protective dose 50%, dose effecting 50% survival)” value in assay [1] is above 10 mg/kg.
Same read-out and setting: the value for `COc1cc(NS(=O)(=O)CC(C)C)c(O)c2c1C[C@H]1C[C@H]3[C@H](N(C)C)C(O)=C(C(N)=O)C(=O)[C@@]3(O)C(O)=C1C2=O` [Compound 166] was 4.3 mg/kg.
The same measure, in the same setting: the value for `CCN(C)CC(=O)Nc1cc(OC(F)(F)F)c2c(c1O)C(=O)C1=C(O)[C@]3(O)C(=O)C(C(N)=O)=C(O)[C@@H](N(C)C)[C@@H]3C[C@@H]1C2` [Compound 218] was 1.4 mg/kg.
On to `CN(C)c1ccc(O)c2c1C[C@H]1C[C@H]3[C@H](N(C)C)C(O)=C(C(N)=O)C(=O)[C@@]3(O)C(O)=C1C2=O` [Minocycline], for which, in assay [2], the MIC EC108 is 2 µg/mL. For the same molecule, the MIC KP109 in assay [3] was determined as 1 µg/mL. The MIC PA111 in assay [4] is 16 µg/mL. Moreover, in assay [5], the MIC AB110 came to 0.06 µg/mL. Besides, the MIC EC107 in assay [6] stood at 0.5 µg/mL.
The like results for `CN(C)[C@@H]1C(O)=C(C(N)=O)C(=O)[C@@]2(O)C(O)=C3C(=O)c4c(O)cccc4C[C@H]3C[C@@H]12` [Sancycline] were, in that order, 8 µg/mL, 8 µg/mL, above 32 µg/mL, 0.25 µg/mL and 8 µg/mL.
Take `CN(C)[C@@H]1C(O)=C(C(N)=O)C(=O)[C@@]2(O)C(O)=C3C(=O)c4c(O)cccc4[C@@](C)(O)[C@H]3C[C@@H]12` [Tetracycline, tetracycline]: the “PD50 (protective dose 50%, dose effecting 50% survival)” value in assay [1] is 1.0 mg/kg.
`CN(C)c1cc(NC(=O)CNC(C)(C)C)c(O)c2c1C[C@H]1C[C@H]3[C@H](N(C)C)C(O)=C(C(N)=O)C(=O)[C@@]3(O)C(O)=C1C2=O` [Tigecycline, tigecycline]: in assay [2], the MIC EC108 came to 0.25 µg/mL. For the same molecule, the MIC KP109 in assay [3] came to 0.125 µg/mL. In assay [4], the MIC PA111 is 8 µg/mL. The MIC AB110 in assay [5] came to 0.25 µg/mL. For the same molecule, in assay [6], the MIC EC107 amounted to 0.03 µg/mL. Further, the “PD50 (protective dose 50%, dose effecting 50% survival)” value in assay [1] was 0.97 mg/kg.
